“And” between values parts separate entries of the source, which are not always exact repeats. Identical values can stand only once.
Key:
[1] = test system: Advanced Solid Tumors, Non-Hodgkin Lymphoma or Multiple Myeloma; assay: Clinical Study A: Phase 1/2 dose finding study of Compound 1 administered orally (tumor response, RECIST 1.1); assay type: in vivo, human; parameters: key to RECIST* (best target lesion response): PR = partial response; SD = stable disease; PD = progressive disease; NE = nonevaluable; ND = not done
[2] = test system: hematological cancer cell lines; assay: Growth inhibitory effect of Compound 1 (Cell Titer-Glo, 72 hours, GI50) correlated with biomarkers; assay type: cell-based
Procedure: Cell Lines and Culture Conditions.
40 hematological cancer cell lines (Table 5) used in the study were purchased commercially. A lung cancer cell line A549 was used as a control cell line. A549 was purchased from National Cancer Institute (NCI) and cultured in RPMI+10% fetal bovine serum (FBS).
Cell pellets were made for 37 cell lines without any compound treatment and a reverse phase protein array (RPPA) was performed as described in Tibes R, et al. Mol Cancer Ther 2006; 5:2512-2521. The RPPA analysis of the 37 hematological cell lines was performed with 262 antibodies. The relative level of each protein in each sample was determined and normalized for protein loading. Protein levels were then transformed to log 2 values and median centered by individual batch.
Cells were lysed in RNeasy kit tissue lysis (RLT) buffer (Qiagen; Valencia, Calif.) and total RNA was isolated using RNeasy. Double-stranded cDNA and biotin-labeled cRNA were synthesized using 100 ng of total RNA using Ambion's MessageAmp Premier RNA Amplification Kit. […]
The seeding density for each cell line was optimized to ensure assay linearity in 384-well plates. […] When ready for testing, plates were removed from the freezer, thawed, and unsealed just prior to the addition of the test cells.
Prior to testing, cells were grown and expanded in culture flasks to provide sufficient amounts of starting material. […] At the time when exposure of cells to compound began (t0), initial cell number was assessed via a viability assay (Cell Titer-Glo) by quantifying the level of luminescence generated by adenosine-5′-triphosphate (ATP) present in viable cells. After 72 hours, cell viability of compound-treated cells was assessed via Cell Titer-Glo and read for luminescence.
Cell lines were assayed for growth inhibition by Compound 1 in at least 3 independent tests. […] The response of the control cell line to the compound was monitored closely to enable comparison of the data generated through the assay period. […] In addition, the IC50 value of Compound 1 for each cell line was calculated.

A549 = assay: Repeat testing of pre-spotted Compound 1 plates against the control cell line (A549); assay type: cell-based; conditions: sealed 384-well plates stored at −20° C. for up to 1 month
Procedure: The seeding density for each cell line was optimized to ensure assay linearity in 384-well plates. Increasing concentrations of Compound 1 (0.5 nM to 10 μM) were spotted in a 10-point serial dilution fashion (3-fold dilution) in duplicate within the plate via an acoustic dispenser (EDCATS-100) into an empty 384-well plate. The dimethyl sulfoxide (DMSO) concentration was kept constant for a final assay concentration of 0.1% DMSO. Plates were replicated for use against different cell lines and testing periods. After compound plate replication, all plates were sealed (Agilent ThermoLoc) and stored at −20° C. for up to 1 month. […] When ready for testing, plates were removed from the freezer, thawed, and unsealed just prior to the addition of the test cells.

[3] = test system: Advanced Solid Tumors, Non-Hodgkin Lymphoma, or Multiple Myeloma; assay: Clinical Study B: Phase 1/2 dose finding study of the mTOR kinase inhibitor Compound 1 administered orally (best RECIST overall response, variants, Tables 2 and 3); assay type: in vivo, human; parameters: key: PR=partial response; SD=stable disease; PD=progressive disease; NE=non-evaluable; ND=not done; *: Confirmed reponse; conditions: one line per patient
Procedure: A Phase 1/2, Multi-Center, Open-Label, Dose Finding Study to Assess the Safety. Tolerability, Pharmacokinetics and Preliminary Efficacy of the mTOR Kinase Inhibitor Compound 1 Administered Orally to Subjects with Advanced Solid Tumors, Non-Hodgkin Lymphoma, or Multiple Myeloma.
Compound 1 is administered orally to subjects with advanced solid tumors, non-Hodgkin lymphoma (NHL), or multiple myeloma (MM). The study is designed as a Phase 1/2 trial consisting of two parts: dose escalation (Part A) and dose expansion (Part B).
The primary objectives of the study are (a) to determine the safety and tolerability of Compound 1 when administered orally and to define the non-tolerated dose (NTD) and the maximum tolerated dose (MTD) and (b) to determine the preliminary pharmacokinetics (PK) of Compound 1 following both single and multiple oral dosing of Compound 1.
The secondary objectives of the study are: (a) to evaluate the extent of inhibition of phosphorylation of S6RP (Ser235/236 and/or Ser240/244) and/or 4EB-P1 (Thr37/46) for mTORC1 activity and AKT (Ser473) and/or other relevant biomarkers for mTORC2 activity in peripheral blood samples and tumor biopsies following treatment with Compound 1; (b) to provide information on the preliminary efficacy of Compound 1; and (c) to characterize PK of the metabolite of Compound 1 following oral dosing of Compound 1.
In Part A, subjects will receive single and multiple ascending doses of Compound 1 to measure pharmacokinetics (PK) and identify the maximum tolerated dose (MTD). A modified accelerated titration design (Simon et al, J Nat Cancer Inst (1997) Vol. 89, No. 15) will be used to identify initial toxicity. During the accelerated course, initial cohorts of one subject will be given Compound 1 in dose increments of 100% until the first instance of first-course grade 2 or higher toxicity suspected to be drug-related, at which point the accelerated phase will stop, and that particular cohort will be expanded to a total of 6 subjects. Subsequently, a standard escalation schedule, with approximately 50% dose increments and 6-subject cohorts, will be initiated in order to establish the non-tolerated dose (NTD) and MTD. Smaller increments and additional subjects within a dose cohort may also be evaluated. A dose will be considered the NTD when 2 evaluable subjects in a cohort experience drug-related DLT. When the NTD is established, dose escalation will stop. The MTD is defined as the last dose level below the NTD with 0 or 1 out of 6 evaluable subjects experiencing DLT during Cycle 1. An intermediate dose (ie, one between the NTD and the last dose level before the NTD) or additional subjects within any dose cohort may be required to more precisely determine the MTD.
In Part B, subjects may start Compound 1 at the MTD and/or a lower dose level based on safety, PK and PD data from Part A. Approximately 200 subjects will be treated and evaluated for safety and preliminary antitumor activity after every two cycles of therapy. Selected tumor types include non-small cell lung cancer (NSCLC), glioblastoma multiforme (GBM), hepatocellular carcinoma (HCC), gastrointestinal neuroendocrine tumor (NET) of non-pancreatic origin, hormone receptor positive breast cancer (HRPBC), diffuse large B-cell lymphoma (DLBCL), and multiple myeloma (MM). Up to 40 evaluable subjects will be enrolled for each tumor type.
Men and women, 18 years or older, with advanced NHL, MM, or advanced unresectable solid tumors, including subjects who have progressed on (or not been able to tolerate) standard therapy or for whom no standard anticancer therapy exists.
During the first cycle only in Part A, each subject will be administered a single dose of Compound 1 (Day −1), followed by a 48-hour observation and PK sampling period, followed on Day 1 by daily uninterrupted dosing for 28 days (Cycle 1=30 days). In subsequent Part A cycles, subjects are treated in 28-day cycles with continuous dosing from Day 1 to 28. […]

`CO[C@H]1CC[C@H](N2C(=O)CNc3ncc(-c4ccc(C(C)(C)O)nc4)nc32)CC1` [Compound 1, 7-(6-(2-hydroxypropan-2-yl)pyridin-3-yl)-1-((trans)-4-methoxycyclohexyl)-3,4-dihydropyrazino[2,3-b]pyrazin-2(1H)-one] was tested, and the “RECIST* (best target lesion response)” value ([1]; ER+ patients, genes with mutations of interest) was “SD (8×) and PD (3×) and PR (2×)”, the “showing RECIST PR” value ([1]; patients treated with Compound 1, FIG. 1, data as of September 2014) was 2/17 and the “target lesions showing PR” value ([1]; patients treated with Compound 1, FIG. 1, data as of September 2014, all with PIK3CA mutations) was 3/17. For the same compound, the “IRF4 protein levels versus sensitivity to growth inhibition” value ([2]; 37 hematological cancer cell lines, RPPA, FIG. 5) was “negatively correlated”, the “IRF4 gene expression level (Probe Set 216986_s_at) versus sensitivity to growth inhibition” value ([2]; 40 hematological cancer cell lines, FIG. 4) was “negatively correlated” and the “sensitivity versus activation of mTORC1 and mTORC2 (biomarker RPPA)” value ([2]; subgroup of DLBCL lines, FIG. 6) was “correlated”. The “stability in pre-spotted plates” value (A549) was “stable”, the Best overall response ([3]; patients with HCC exp. (expansion)) was “SD (2×) and NE” and the Best overall response ([3]; patients with MM) was “PD (8×) and NE and SD (4×)”. The Best overall response ([3]; patients with NET exp. (expansion)) was “SD (17×) and PD (2×) and NE and PR”, the Best overall response ([3]; patients with NET) was “SD (18×) and NE (4×) and PR” and the Best overall response ([3]; patients with NSCL+) was “PR and PD”. The Best overall response ([3]; patients with NSCLC) was “NE (6×) and SD (11×) and PD (2×)”.

Source: patent US20150099754A1, “TREATMENT OF CANCER CHARACTERIZED BY GENE MUTATIONS” (SIGNAL PHARMACEUTICALS, LLC, priority 2013, published 2015)
